Measurements reported in US20100323990A1, “SHIP 1 MODULATOR PRODRUGS” (THE UNIVERSITY OF BRITISH COLUMBIA, priority 2006, published 2010).

Tested on: SHIP−/− bone marrow derived macrophages
Test: LPS-stimulated TNFα production in SHIP−/− bone marrow derived macrophages
Format: cell-based, mice
Conditions: SHIP−/− cells, 15 μM, 10 ng/mL LPS 2 h
Method: Bone marrow cells were aspirated from 4 to 8 week old C57B16×129Sv mixed background mice and SHIP^+/+ and SHIP^−/− mast cells prepared as described previously. Bone marrow derived macrophages from SHIP^+/+ and SHIP^−/− mice were obtained and maintained in IMDM supplemented with 10% FCS, 150 μM MTG, 2% C127 cell conditioned medium as a source of macrophage colony stimulating factor (M-CSF) (macrophage medium)
LPS stimulation of macrophages. For the analysis of LPS-stimulated TNFα production, 2×10^5 cells were plated the night before in 24 well plates in macrophage medium. The next day, the medium was changed and AQX-016A or carrier was added to cells at the indicated concentrations for 30 min prior to the addition of 10 ng/mL LPS. Supernatants were collected for TNFα determination by ELISA (BD Biosciences, Mississauga, ON, Canada). For analysis of intracellular signaling, 2×10^6 cells were plated the night before in 6 cm tissue culture plates. […] Calcium influx was monitored by spectrofluorometry. […] Total cell lysates were then prepared and analyzed for phospho-PKB, phospho-p38^MAPK, phospho-MAPK, Grb-2 (Cell Signalling, Mississauga, Ont) and SHIP^6 by immunoblot analysis.
The target specificity and biological efficacy of AQX-016A were assessed by comparing AQX-016A's effects on PI3K-regulated processes in primary SHIP^+/+ vs SHIP^−/− macrophages and mast cells. […]

SMILES: Cc1cc(O)c(O)c2c1[C@]1(C)CCC3C(C)(C)CCC[C@]3(C)[C@H]1C2 (stereo partly shown) [AQX-016A]
- suppression of TNFα production: 15%
